Measured values from US4342780A, “Method of depleting endogenous monoamines” (Merrell-Toraude et Cie, priority 1981, dated 1982).

Columns and labels:
AADC [1] = assay: Ex vivo AADC activity in organs of mice after repeated i.p. doses (Table II); design: species or system mice (Swiss Albino); conditions: three days, 12 h after 6th dose, vs control
Procedure: (§1) The test animals (e.g. mice or rats) are given the test compound in a suitable vehicle, either orally or by injection, each day over the period of time desired. The animals are kept on a constant time cycle, and body weights are measured daily. The animals are sacrificed by decapitation 12 to 24 hours after receiving the last dose of the test compound. Control animals receive the vehicle alone.
(§2) Immediately after death, the organs (brain, heart, and kidney) are removed and homogenized either in 50 ml phosphate buffer pH 6.8 for AADC determination or in ice-cold 0.4 M HClO4 containing 0.05% (w/v) EDTA and 0.1% (w/v) sodium bisulfite for catecholamine determination. AADC activity is determined by the ^14 CO2 trapping method of J. Christenson, supra (see Example 14) using DL-[1-^14 C]-dopa as the substrate. Catecholamines are determined by centrifuging the homogenate, adding the supernatant to alumina buffered to pH 8.0-8.4 to adsorb the catecholamines, re-extracting the catecholamines from the alumina with 0.2 M HClO4 and determining the catecholamines in the extracts using known procedures, such as by reversed-phase ion-pair HPLC with electrochemical detection.
(§3) Table II, shown below, sets forth the results obtained by testing particular compounds of Formula I in the above-described procedure in mice (Swiss Albino) after i.p. administration of the compound twice daily for three days: […]

AADC [2] = target: T1, AADC (Sus scrofa, UniProt P80041); assay: In vitro AADC inhibition: time of 90% inactivation (14CO2 trapping, DL-[1-14C]-dopa substrate); type: biochemical, hog; design: key to RATING: ++++: The relative activities of the compounds are rated by the given number of "plus" signs; +++: The relative activities of the compounds are rated by the given number of "plus" signs; 0-+: The relative activities of the compounds are rated by the given number of "plus" signs; conditions: CONC. 100 μM; for TIME OF 90% INACTIVATION: pH 7.4, 37° C.; for RATING: relative activity
T1 sequence (P80041 1-486): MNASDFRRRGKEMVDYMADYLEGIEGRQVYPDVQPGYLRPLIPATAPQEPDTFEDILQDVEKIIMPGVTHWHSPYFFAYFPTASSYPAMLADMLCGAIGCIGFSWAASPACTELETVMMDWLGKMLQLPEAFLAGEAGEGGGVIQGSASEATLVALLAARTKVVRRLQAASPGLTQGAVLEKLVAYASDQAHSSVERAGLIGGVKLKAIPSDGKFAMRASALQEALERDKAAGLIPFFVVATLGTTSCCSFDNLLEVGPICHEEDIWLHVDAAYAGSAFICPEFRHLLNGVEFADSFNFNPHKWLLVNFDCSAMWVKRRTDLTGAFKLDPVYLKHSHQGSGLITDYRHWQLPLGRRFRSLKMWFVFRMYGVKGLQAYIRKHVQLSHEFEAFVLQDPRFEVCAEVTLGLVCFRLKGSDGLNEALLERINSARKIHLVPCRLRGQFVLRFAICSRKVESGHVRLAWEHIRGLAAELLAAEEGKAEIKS
Procedure: AADC can be purified from hog kidney by the general method of J. Christenson et al. Archs. Biochem. Biophys., 141, 356 (1970) and G. Lancaster et al., Can. J. Biochem., 50, 791 (1972), and the specific activity of the enzyme is determined by the ^14 CO2 trapping method using DL-[1-^14 C]-dopa as the substrate (see Christenson et al.). One unit of activity is defined as the total amount of enzyme which produces 1 n mol of CO2 per minute, with DL-[1-^14 C]-dopa as substrate.
To 100 μl of 50 mM-phosphate buffer pH 7.4 containing 100 mM-mercapto-ethanol are added 5 μl of an aqueous solution containing the test compound at the desired concentration and 50 μl of an aqueous solution containing 2 units of AADC. The mixture is incubated at 37° C. and 20 μl aliquots are removed at various times. The AADC activity remaining in each aliquot is measured by the CO2 trapping method of Christenson.
The relative activities of the compounds are rated by the given number of "plus" signs.

[3] = system: catecholamine content (norepinephrine, dopamine); assay: Catecholamine content in organs of mice after repeated i.p. doses (Table II); type: in vivo, mice (Swiss Albino); conditions: three days, 12 h after 6th dose, vs control
Procedure: as §1, §2, §3

[4] = Deaths in mice after repeated i.p. doses (Table II footnotes); type: in vivo, mice (Swiss Albino); conditions: 100 mg/kg i.p. twice daily, three days; number dead of animals
Procedure: as §1, §3

[5] = system: endogenous catecholamine and 5-HT levels; assay: Effect on endogenous catecholamine and 5-HT levels in brain and heart (general statement); type: in vivo
[6] = system: catecholamine content (norepinephrine, dopamine); assay: Catecholamine content in organs of rats after repeated i.p. doses (Table II, footnote c); type: in vivo; conditions: 100 mg/kg i.p. twice daily, three days, 12 h after 6th dose, vs control
Procedure: as §1, §2, §3

AADC [7] = assay: Ex vivo AADC activity in brain of rats after repeated i.p. doses (Table II, footnote c); conditions: 100 mg/kg i.p. twice daily, three days, 12 h after 6th dose, vs control
Procedure: as §1, §2, §3

SMILES	% CHANGE AADC Brain (AADC [1]; 10 mg/kg i.p. twice daily)	% CHANGE AADC Kidney (AADC [1]; 10 mg/kg i.p. twice daily)	% CHANGE AADC Brain (AADC [1]; 100 mg/kg i.p. twice daily)	% CHANGE AADC Kidney (AADC [1]; 100 mg/kg i.p. twice daily)	TIME OF 90% INACTIVATION (AADC [2])	RATING (AADC [2])	% CHANGE NOREPINEPHRINE Brain ([3]; 10 mg/kg i.p. twice daily, * not significant)	% CHANGE NOREPINEPHRINE Heart ([3]; 10 mg/kg i.p. twice daily, * not significant (-25*, -7*))	% CHANGE DOPAMINE Brain ([3]; 10 mg/kg i.p. twice daily, * not significant (-25*, -9*))	% CHANGE NOREPINEPHRINE Brain ([3]; 100 mg/kg i.p. twice daily)	% CHANGE NOREPINEPHRINE Heart ([3]; 100 mg/kg i.p. twice daily)	% CHANGE DOPAMINE Brain ([3]; 100 mg/kg i.p. twice daily, * not significant (-35*))	dead [4]	selectivity (brain catecholamines lowered, not heart, not brain 5-HT) [5]	% CHANGE DOPAMINE Brain [6]	% CHANGE NOREPINEPHRINE Brain [6]	% CHANGE NOREPINEPHRINE Heart [6]	% CHANGE AADC Brain (AADC [7])
Cc1ccc(CC(N)(CF)C(=O)O)c(O)c1 (centres unmarked) [2-OH4-methyl phenyl, 2-amino-2-fluoromethyl-3-(2-hydroxy-4-methylphenyl)propionic acid]	-39%	-70%	-99%	-99.5%	1 min	+++	0%	-7%	-9%	-69%	-75%	-35%	2/5					
NC(CF)(Cc1ccc(O)cc1)C(=O)O (centres unmarked) [Example 4-OH-phenyl, 2-Amino-2-fluoromethyl-3-(4-hydroxyphenyl)propionic acid]					> 300 min	0-+								not found	-88%	-54%	-45%	-88%
